Measured values reported in ChEMBL document CHEMBL1151109, “Interference Competition Among Natural Fungal Competitors: an Antifungal Metabolite from the Coprophilous Fungus Preussia fleischhakii” (J Nat Prod, 1988).
In brackets after ≈: the same amount, converted by molar mass.

Experiments:
[1] = Toxicity in brine shrimp; format: organism-based; details: artemia, in vivo
[2] = test system: Sordaria fimicola; experiment: Antifungal activity against Sordaria fimicola NRRL 6460 assessed as hyphal morphological changes; format: functional, organism-based
[3] = test system: Ascobolus; experiment: Antifungal activity against sAscobolus furfuraceus NRRL 6459 assessed as hyphal morphological changes; format: functional, organism-based

## COc1cc(C)c(Oc2cc(C)cc(O)c2)c(O)c1 [CYPERIN]
[1]
  LC50: 125 µg/mL (≈ 480 µM)
[2]
  IC50: 50 µg/mL (≈ 192 µM)
  MIC: 75 µg/mL (≈ 288 µM)
[3]
  IC50: 100 µg/mL (≈ 384 µM)
  MIC: 250 µg/mL (≈ 960 µM)
